In the NIST ThermoML archive (doi:10.1021/je3009073):
Numbers after ± are expanded uncertainties.

How the values were obtained:
[1] = 101.33 kPa, Liquid; for viscosity: Capillary tube (Ostwald / Ubbelohde) method; for mass density: Pycnometric method
[2] = xn = mol fraction of the nth substance listed; details: 101 kPa, Liquid, x1 = 1; for viscosity: Capillary tube (Ostwald / Ubbelohde) method; for mass density: Pycnometric method

SMILES	viscosity ([1]; 303.15 K)	mass density ([1]; 303.15 K)	viscosity ([1]; 308.15 K)	mass density ([1]; 308.15 K)	viscosity ([1]; 313.15 K)	mass density ([1]; 313.15 K)	viscosity ([1]; 318.15 K)	mass density ([1]; 318.15 K)	viscosity ([1]; 323.15 K)	mass density ([1]; 323.15 K)	viscosity ([1]; 328.15 K)	mass density ([1]; 328.15 K)	viscosity ([2]; 303.15 K)	viscosity ([2]; 308.15 K)	viscosity ([2]; 313.15 K)	viscosity ([2]; 318.15 K)	viscosity ([2]; 323.15 K)	mass density ([2]; 323.15 K)	viscosity ([2]; 328.15 K)	mass density ([2]; 328.15 K)
NCCO [2-aminoethan-1-ol]	14.55 ± 0.61 mPa·s	1007.9 ± 2 kg/m3	11.86 ± 0.5 mPa·s	1004.2 ± 2 kg/m3	9.65 ± 0.41 mPa·s	1000.5 ± 2.1 kg/m3	7.91 ± 0.33 mPa·s	996.2 ± 2.1 kg/m3	6.72 ± 0.28 mPa·s	992.7 ± 2.1 kg/m3	5.74 ± 0.24 mPa·s	988.7 ± 2.1 kg/m3	–	–	–	–	–	–	–	–
O [water] + CC(O)C(=O)[O-].CN(C)C(N)=[N+](C)C	–	–	–	–	–	–	–	–	–	–	–	–	0.8 ± 0.03 mPa·s	0.72 ± 0.03 mPa·s	0.65 ± 0.03 mPa·s	0.6 ± 0.1 mPa·s	0.55 ± 0.02 mPa·s	988 ± 2 kg/m3	0.5 ± 0.02 mPa·s	985.7 ± 2 kg/m3
O [water] + CC(O)C(=O)[O-].[NH3+]CCO	–	–	–	–	–	–	–	–	–	–	–	–	0.8 ± 0.03 mPa·s	0.72 ± 0.03 mPa·s	0.65 ± 0.03 mPa·s	0.6 ± 0.02 mPa·s	0.55 ± 0.02 mPa·s	988 ± 2 kg/m3	0.5 ± 0.02 mPa·s	985.7 ± 2 kg/m3
